Results published in BindingDB's records for doi:10.1021/jm970569j (Seoul National University, 1998).

The compounds below were run against Platelet-activating factor receptor (Oryctolagus cuniculus) (assay: In vitro inhibitory activity against PAF receptor using [3H]PAF as radioligand in rabbit platelets).

IC50 | Structure (SMILES)
30 µM | C=C1CCC2[C@@](C)(CO)CCC[C@]2(C)[C@H]1CCC1=CCOC1=O (stereo partly drawn) [3-[2-((1S,5S,8aR)-5-Hydroxymethyl-5,8a-dimethyl-2-methylene-decahydro-naphthalen-1-yl)-ethyl]-5H-furan-2-one]
1.7 µM | C=C1CCC2[C@@](C)(COC)CCC[C@]2(C)[C@H]1CCC1=CCOC1=O (stereo partly drawn) [3-[2-((1S,5S,8aR)-5-Methoxymethyl-5,8a-dimethyl-2-methylene-decahydro-naphthalen-1-yl)-ethyl]-5H-furan-2-one]
110 µM | C=C1CCC2[C@@](C)(CO)CCC[C@]2(C)[C@H]1CCC1=CC(=O)OC1 (stereo partly drawn) [4-[2-((1S,5S,8aR)-5-Hydroxymethyl-5,8a-dimethyl-2-methylene-decahydro-naphthalen-1-yl)-ethyl]-5H-furan-2-one]
0.25 µM | C=C1CCC2[C@](C)(CCC[C@]2(C)C(=O)OC)[C@H]1CCC1=CCOC1=O (stereo partly drawn) [(1S,4aR,5S)-1,4a-Dimethyl-6-methylene-5-[2-(2-oxo-2,5-dihydro-furan-3-yl)-ethyl]-decahydro-naphthalene-1-carboxylic acid methyl ester]
2 µM | C=C1CCC2[C@](C)(CCC[C@]2(C)C(=O)OC)[C@H]1CCC1CCOC1=O (stereo partly drawn) [(1S,4aR,5S)-1,4a-Dimethyl-6-methylene-5-[2-(2-oxo-tetrahydro-furan-3-yl)-ethyl]-decahydro-naphthalene-1-carboxylic acid methyl ester]
6 µM | C=C1CCC2[C@](C)(CCC[C@]2(C)C(=O)OC)[C@H]1CCC1=CC(=O)OC1 (stereo partly drawn) [(1S,4aR,5S)-1,4a-Dimethyl-6-methylene-5-[2-(5-oxo-2,5-dihydro-furan-3-yl)-ethyl]-decahydro-naphthalene-1-carboxylic acid methyl ester]
> 1000 µM | C=C1CCC2[C@](C)(CCC[C@]2(C)C(=O)OC)[C@H]1CCc1ccoc1 (stereo partly drawn) [(1S,4aR,5S)-5-(2-Furan-3-yl-ethyl)-1,4a-dimethyl-6-methylene-decahydro-naphthalene-1-carboxylic acid methyl ester]
21 µM | C=C1CCC2[C@@](C)(CO)CCC[C@]2(C)[C@H]1CC/C(=C/CO)CO (stereo partly drawn) [(Z)-2-[2-((1S,5S,8aR)-5-Hydroxymethyl-5,8a-dimethyl-2-methylene-decahydro-naphthalen-1-yl)-ethyl]-but-2-ene-1,4-diol]

Continued, compound first:

Structure (SMILES) | IC50
COC(=O)[C@@]1(C)CCC[C@@]2(C)C1CCC(C)[C@@H]2CCC1CCOC1=O (stereo partly drawn) [(1S,4aR,5S)-1,4a,6-Trimethyl-5-[2-(2-oxo-tetrahydro-furan-3-yl)-ethyl]-decahydro-naphthalene-1-carboxylic acid methyl ester] | 4.8 µM
C=C1CCC2[C@](C)(CCC[C@]2(C)C(=O)OC)[C@H]1CC/C(=C/CO)CO (stereo partly drawn) [(1S,4aR,5S)-5-((Z)-5-Hydroxy-3-hydroxymethyl-pent-3-enyl)-1,4a-dimethyl-6-methylene-decahydro-naphthalene-1-carboxylic acid methyl ester] | 12 µM
COC(=O)[C@@]1(C)CCC[C@@]2(C)C1CC[C@H](CO)[C@@H]2CCC1=CCOC1=O (stereo partly drawn) [(1S,4aR,5S,6S)-6-Hydroxymethyl-1,4a-dimethyl-5-[2-(2-oxo-2,5-dihydro-furan-3-yl)-ethyl]-decahydro-naphthalene-1-carboxylic acid methyl ester] | 1.6 µM
COC(=O)[C@@]1(C)CCC[C@@]2(C)C1CCC(=O)[C@@H]2CCC1=CCOC1=O (stereo partly drawn) [(1S,4aS,5R)-1,4a-Dimethyl-6-oxo-5-[2-(2-oxo-2,5-dihydro-furan-3-yl)-ethyl]-decahydro-naphthalene-1-carboxylic acid methyl ester] | 0.26 µM
COC(=O)[C@@]1(C)CCC[C@@]2(C)C1CCC(=O)[C@@H]2CCC1CCOC1=O (stereo partly drawn) [(1S,4aS,5R)-1,4a-Dimethyl-6-oxo-5-[2-(2-oxo-tetrahydro-furan-3-yl)-ethyl]-decahydro-naphthalene-1-carboxylic acid methyl ester] | 2.6 µM
COC(=O)[C@@]1(C)CCC[C@@]2(C)C1CC[C@](O)(CO)[C@@H]2CCC1=CCOC1=O (stereo partly drawn) [(1S,4aS,5R,6R)-6-Hydroxy-6-hydroxymethyl-1,4a-dimethyl-5-[2-(2-oxo-2,5-dihydro-furan-3-yl)-ethyl]-decahydro-naphthalene-1-carboxylic acid methyl ester] | > 1000 µM
COC(=O)[C@@]1(C)CCC[C@@]2(C)C1CC[C@H](O)[C@@H]2CCC1=CCOC1=O (stereo partly drawn) [(1S,4aS,5R,6S)-6-Hydroxy-1,4a-dimethyl-5-[2-(2-oxo-2,5-dihydro-furan-3-yl)-ethyl]-decahydro-naphthalene-1-carboxylic acid methyl ester] | 2 µM
COC(=O)[C@@]1(C)CCC[C@@]2(C)C1CC[C@]1(CO1)[C@@H]2CCC1=CCOC1=O (stereo partly specified) [methyl 5,8a-dimethyl-1-[2-(2-oxo-2,5-dihydro-3-furanyl)ethyl]spiro[perhydronaphthalene-2,2'-(dihydrooxirane)]-5-carboxylate] | 1 µM
